Measured values from patent US20260265265A1, “NOVEL BENZIMIDAZOLONE DERIVATIVE COMPOUND AS AUTOTAXIN INHIBITOR” (LG CHEM, LTD., priority 2023, published 2026).

Biological target: T1, Recombinant Human ENPP-2/Autotaxin (Homo sapiens, UniProt Q13822)
T1 construct: purchased R&D systems 5255-EN
Test: LysoPLD activity measurement (autotaxin enzyme inhibition, choline release, TOOS reagent)
Format: biochemical
Details: LysoPLD inhibitory activity; substrate 14:0 LysoPC; absorbance at 555 nm
Outline: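 Enzyme and compound were preincubated for 30 min before adding 14:0 LysoPC substrate, diluted to 300 μM, for 90 minutes at 37° C. The choline product was quantified colorimetrically with TOOS reagent. Wells without compound held 1% DMSO.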

SMILES: O=C(O)c1cccc(C2(n3c(=O)n(-c4ccc(C(=O)N5CC6(CCOCC6)C5)cc4)c4cc(Cl)ccc43)CC2)c1F [Example 107, 3-(1-(3-(4-(7-oxa-2-azaspiro[3.5]nonane-2-carbonyl)phenyl)-5-chloro-2-oxo-2,3-dihydro-1H-benzo[d]imidazol-1-yl)cyclopropyl)-2-fluorobenzoic acid]
- IC50: < 0.01 µM

SMILES: O=C(O)c1cccc(Cn2c(=O)n(-c3ccc(C4CCOCC4)cc3)c3cc(Cl)ccc32)c1F [Example 108, 3-((5-chloro-2-oxo-3-(4-(tetrahydro-2H-pyran-4-yl)phenyl)-2,3-dihydro-1H-benzo[d]imidazol-1-yl)methyl)-2-fluorobenzoic acid]
- IC50: 0.01 to 0.1 µM

SMILES: O=C(O)c1cccc(Cn2c(=O)n(-c3ccc(C4=CCCCC4)cc3)c3cc(Cl)ccc32)c1 [Example 109, 3-((5-chloro-2-oxo-3-(2′,3′,4′,5′-tetrahydro-[1,1′-biphenyl]-4-yl)-2,3-dihydro-1H-benzo[d]imidazol-1-yl)methyl)benzoic acid]
- IC50: 0.1 to 1 µM

SMILES: O=C(O)c1cccc(Cn2c(=O)n(-c3ccc(C4=CCOC4)cc3)c3cc(Cl)ccc32)c1F [Example 110, 3-((5-chloro-3-(4-(2,5-dihydrofuran-3-yl)phenyl)-2-oxo-2,3-dihydro-1H-benzo[d]imidazol-1-yl)methyl)-2-fluorobenzoic acid]
- IC50: 0.01 to 0.1 µM

SMILES: CC1CC=C(c2ccc(-n3c(=O)n(Cc4cccc(C(=O)O)c4F)c4ccc(Cl)cc43)cc2)CC1 (centres unmarked) [Example 111, 3-((5-chloro-3-(4′-methyl-2′,3′,4′,5′-tetrahydro-′[1,1′-biphenyl]-4-yl)-2-oxo-2,3-dihydro-1H-benzo[d]imidazol-1-yl)methyl)-2-fluorobenzoic acid]
- IC50: 0.1 to 1 µM

SMILES: CC1(C)CC=C(c2ccc(-n3c(=O)n(Cc4cccc(C(=O)O)c4F)c4ccc(Cl)cc43)cc2)CC1 [Example 112, 3-((5-chloro-3-(4′,4′-dimethyl-2′,3′,4′,5′-tetrahydro-[1,1′-biphenyl]-4-yl)-2-oxo-2,3-dihydro-1H-benzo[d]imidazol-1-yl)methyl)-2-fluorobenzoic acid]
- IC50: 0.1 to 1 µM

SMILES: CN(C)C(=O)c1ccc(-n2c(=O)n(CCc3cccc(C(=O)O)c3)c3ccc(Cl)cc32)cc1 [Example 113, 3-(2-(5-chloro-3-(4-(dimethylcarbamoyl)phenyl)-2-oxo-2,3-dihydro-1H-benzo[d]imidazol-1-yl)ethyl)benzoic acid]
- IC50: 0.1 to 1 µM

SMILES: CC1(C)Cc2cc(-n3c(=O)n(Cc4cccc(C(=O)O)c4)c4ccc(Cl)cc43)ccc2C1=O [Example 115, 3-((5-chloro-3-(2,2-dimethyl-1-oxo-2,3-dihydro-1H-inden-5-yl)-2-oxo-2,3-dihydro-1H-benzo[d]imidazol-1-yl)methyl)benzoic acid]
- IC50: 0.1 to 1 µM

SMILES: CN1Cc2cc(-n3c(=O)n(Cc4cccc(C(=O)O)c4)c4ccc(Cl)cc43)ccc2C1=O [Example 116, 3-((5-chloro-3-(2-methyl-1-oxoisoindolin-5-yl)-2-oxo-2,3-dihydro-1H-benzo[d]imidazol-1-yl)methyl)benzoic acid]
- IC50: 0.1 to 1 µM

SMILES: CN1Cc2cc(-n3c(=O)n(Cc4cccc(C(=O)O)c4F)c4ccc(Cl)cc43)ccc2C1=O [Example 117, 3-((5-chloro-3-(2-methyl-1-oxoisoindolin-5-yl)-2-oxo-2,3-dihydro-1H-benzo[d]imidazol-1-yl)methyl)-2-fluorobenzoic acid]
- IC50: 0.01 to 0.1 µM

SMILES: O=C(O)c1cccc(Cn2c(=O)n(-c3ccc(N4CCC(F)(F)CC4)cc3)c3cc(Cl)ccc32)c1F [Example 118, 3-((5-chloro-3-(4-(4,4-difluoropiperidin-1-yl)phenyl)-2-oxo-2,3-dihydro-1H-benzo[d]imidazol-1-yl)methyl)-2-fluorobenzoic acid]
- IC50: 0.01 to 0.1 µM

SMILES: O=C(O)c1cccc(Cn2c(=O)n(-c3ccc(N4CCC(F)(F)C4)cc3)c3c(F)c(Cl)ccc32)c1F [Example 119, 3-((5-chloro-3-(4-(3,3-difluoropyrrolidin-1-yl)phenyl)-4-fluoro-2-oxo-2,3-dihydro-1H-benzo[d]imidazol-1-yl)methyl)-2-fluorobenzoic acid]
- IC50: 0.01 to 0.1 µM

SMILES: O=C(O)c1cccc(Cn2c(=O)n(-c3ccc(N4CC(O)C4)cc3)c3c(F)c(Cl)ccc32)c1F [Example 120, 3-((5-chloro-4-fluoro-3-(4-(3-hydroxyazetidin-1-yl)phenyl)-2-oxo-2,3-dihydro-1H-benzo[d]imidazol-1-yl)methyl)-2-fluorobenzoic acid]
- IC50: 0.01 to 0.1 µM

SMILES: O=C(O)c1cccc(C2(n3c(=O)n(-c4ccc(C5=CCOCC5)cc4)c4cc(Cl)ccc43)CC2)c1 [Example 121, 3-(1-(5-chloro-3-(4-(3,6-dihydro-2H-pyran-4-yl)phenyl)-2-oxo-2,3-dihydro-1H-benzo[d]imidazol-1-yl)cyclopropyl)benzoic acid]
- IC50: < 0.01 µM

SMILES: O=C(O)c1cccc(C2(n3c(=O)n(-c4ccc(C5=CCOCC5)cc4)c4cc(Cl)ccc43)CC2)c1F [Example 122, 3-(1-(5-chloro-3-(4-(3,6-dihydro-2H-pyran-4-yl)phenyl)-2-oxo-2,3-dihydro-1H-benzo[d]imidazol-1-yl)cyclopropyl)-2-fluorobenzoic acid]
- IC50: < 0.01 µM

SMILES: O=C(O)c1cccc(C2(n3c(=O)n(-c4ccc(C5=CCOC5)cc4)c4cc(Cl)ccc43)CC2)c1F [Example 123, 3-(1-(5-chloro-3-(4-(2,5-dihydrofuran-3-yl)phenyl)-2-oxo-2,3-dihydro-1H-benzo[d]imidazol-1-yl)cyclopropyl)-2-fluorobenzoic acid]
- IC50: < 0.01 µM

SMILES: O=C(O)c1cccc(C2(n3c(=O)n(-c4ccc(C5=CCOC5)cc4)c4cc(Cl)ccc43)CC2)c1 [Example 124, 3-(1-(5-chloro-3-(4-(2,5-dihydrofuran-3-yl)phenyl)-2-oxo-2,3-dihydro-1H-benzo[d]imidazol-1-yl)cyclopropyl)benzoic acid]
- IC50: < 0.01 µM

SMILES: O=C(O)c1ccc(Cn2c(=O)n(-c3ccc(N4CCOCC4)cc3)c3c(F)c(Cl)ccc32)cc1 [Example 125, 4-((5-chloro-4-fluoro-3-(4-morpholinophenyl)-2-oxo-2,3-dihydro-1H-benzo[d]imidazol-1-yl)methyl)benzoic acid]
- IC50: 0.1 to 1 µM

SMILES: O=C(O)c1cccc(C2(n3c(=O)n(-c4ccc(C(=O)N5CCOCC5)cc4)c4cc(Cl)ccc43)CC2)c1 [Example 126, 3-(1-(5-chloro-3-(4-(morpholine-4-carbonyl)phenyl)-2-oxo-2,3-dihydro-1H-benzo[d]imidazol-1-yl)cyclopropyl)benzoic acid]
- IC50: < 0.01 µM

SMILES: C[C@H]1COCCN1C(=O)c1ccc(-n2c(=O)n(C3(c4cccc(C(=O)O)c4)CC3)c3ccc(Cl)cc32)cc1 [Example 127, (S)-3-(1-(5-chloro-3-(4-(3-methylmorpholine-4-carbonyl)phenyl)-2-oxo-2,3-dihydro-1H-benzo[d]imidazol-1-yl)cyclopropyl)benzoic acid]
- IC50: < 0.01 µM

SMILES: O=C(O)c1cccc(C2(n3c(=O)n(-c4ccc(C(=O)N5CC(O)C5)cc4)c4cc(Cl)ccc43)CC2)c1 [Example 128, 3-(1-(5-chloro-3-(4-(3-hydroxyazetidine-1-carbonyl)phenyl)-2-oxo-2,3-dihydro-1H-benzo[d]imidazol-1-yl)cyclopropyl)benzoic acid]
- IC50: < 0.01 µM

SMILES: O=C(O)c1cccc(C2(n3c(=O)n(-c4ccc(C(=O)N5CC(F)(F)C5)cc4)c4cc(Cl)ccc43)CC2)c1 [Example 129, 3-(1-(5-chloro-3-(4-(3,3-difluoroazetidine-1-carbonyl)phenyl)-2-oxo-2,3-dihydro-1H-benzo[d]imidazol-1-yl)cyclopropyl)benzoic acid]
- IC50: < 0.01 µM

SMILES: O=C(O)c1cccc(C2(n3c(=O)n(-c4ccc(C(=O)N5CCC(F)(F)C5)cc4)c4cc(Cl)ccc43)CC2)c1 [Example 130, 3-(1-(5-chloro-3-(4-(3,3-difluoropyrrolidine-1-carbonyl)phenyl)-2-oxo-2,3-dihydro-1H-benzo[d]imidazol-1-yl)cyclopropyl)benzoic acid]
- IC50: < 0.01 µM

SMILES: O=C(O)c1cccc(C2(n3c(=O)n(-c4ccc(C(=O)N5CCC(F)(F)CC5)cc4)c4cc(Cl)ccc43)CC2)c1 [Example 131, 3-(1-(5-chloro-3-(4-(4,4-difluoropiperidine-1-carbonyl)phenyl)-2-oxo-2,3-dihydro-1H-benzo[d]imidazol-1-yl)cyclopropyl)benzoic acid]
- IC50: < 0.01 µM

SMILES: O=C(O)c1cccc(C2(n3c(=O)n(-c4ccc(C(=O)N5CCC(F)(F)C5)cc4)c4cc(Cl)ccc43)CC2)c1F [Example 132, 3-(1-(5-chloro-3-(4-(3,3-difluoropyrrolidine-1-carbonyl)phenyl)-2-oxo-2,3-dihydro-1H-benzo[d]imidazol-1-yl)cyclopropyl)-2-fluorobenzoic acid]
- IC50: < 0.01 µM

SMILES: O=C(O)c1cccc(C2(n3c(=O)n(-c4ccc(C(=O)N5CCC(F)(F)CC5)cc4)c4cc(Cl)ccc43)CC2)c1F [Example 133, 3-(1-(5-chloro-3-(4-(4,4-difluoropiperidine-1-carbonyl)phenyl)-2-oxo-2,3-dihydro-1H-benzo[d]imidazol-1-yl)cyclopropyl)-2-fluorobenzoic acid]
- IC50: < 0.01 µM

SMILES: O=C(O)c1cccc(C2(n3c(=O)n(-c4ccc(C(=O)N5CC(O)C5)cc4)c4cc(Cl)ccc43)CC2)c1F [Example 134, 3-(1-(5-chloro-3-(4-(3-hydroxyazetidine-1-carbonyl)phenyl)-2-oxo-2,3-dihydro-1H-benzo[d]imidazol-1-yl)cyclopropyl)-2-fluorobenzoic acid]
- IC50: < 0.01 µM

SMILES: O=C(O)c1cccc(C2(n3c(=O)n(-c4ccc(C(=O)N5CC6(COC6)C5)cc4)c4cc(Cl)ccc43)CC2)c1F [Example 135, 3-(1-(3-(4-(2-oxa-6-azaspiro[3.3]heptane-6-carbonyl)phenyl)-5-chloro-2-oxo-2,3-dihydro-1H-benzo[d]imidazol-1-yl)cyclopropyl)-2-fluorobenzoic acid]
- IC50: < 0.01 µM

SMILES: C[C@H]1COCCN1C(=O)c1ccc(-n2c(=O)n(C3(c4cccc(C(=O)O)c4F)CC3)c3ccc(Cl)cc32)cc1 [Example 136, (S)-3-(1-(5-chloro-3-(4-(3-methylmorpholine-4-carbonyl)phenyl)-2-oxo-2,3-dihydro-1H-benzo[d]imidazol-1-yl)cyclopropyl)-2-fluorobenzoic acid]
- IC50: < 0.01 µM
